This note sets out measurements from ChEMBL document CHEMBL5724914, “Linking interpersonal differences in gut microbiota composition and drug biotransformation activity” (2024).

The conditions of series [1]: human gut metagenome, 24 h, 2 µM.
The conditions of series [2]: human gut metagenome, 24 h, 2 µM. The source holds these as a separate data set.
The conditions of series [3]: human gut metagenome, 24 h, 2 µM. The source holds these as a separate data set.
The conditions of series [4]: human gut metagenome, 24 h, 2 µM. The source holds these as a separate data set.
Series [5] is described as follows: The drug is tested on Z-012 corresponding to metagenome with ENA study accession number: PRJEB37062 and ENA sample accession number: ERS12561812 for biotransformation under anaerobic condition. The drug concentrations were measured over 9 timepoints collected between 0 and 24 hours of incubation by liquid-chromatography-coupled mass spectrometry (LC–MS). Conditions: 2 µM.

Series [6] in a line: The drug is tested on Z-018 corresponding to pig gut metagenome with ENA study accession number: PRJEB37062 and ENA sample accession number: ERS12561817 for biotransformation under anaerobic condition. The drug concentrations were measured over 9 timepoints collected between 0 and 24 hours of incubation by liquid-chromatography-coupled mass spectrometry (LC–MS). Conditions: 2 µM.

Series [7] in a line: The drug is tested on Z-001 corresponding to mouse gut metagenome with ENA study accession number: PRJEB37062 and ENA sample accession number: ERS12561801 for biotransformation under anaerobic condition. The drug concentrations were measured over 9 timepoints collected between 0 and 24 hours of incubation by liquid-chromatography-coupled mass spectrometry (LC–MS). Conditions: 2 µM.

Series [8] in a line: The drug is tested on Z-013 corresponding to rabbit gut metagenome with ENA study accession number: PRJEB37062 and ENA sample accession number: ERS12561813 for biotransformation under anaerobic condition. The drug concentrations were measured over 9 timepoints collected between 0 and 24 hours of incubation by liquid-chromatography-coupled mass spectrometry (LC–MS). The conditions noted are these: 2 µM.

The conditions of series [9]: human gut metagenome, 24 h, 2 µM. This is another data set of the same source.
The conditions of series [10]: human gut metagenome, 24 h, 2 µM. This is another data set of the same source.
Series [11] can be described thus: The drug is tested on WLS-077 corresponding to human gut metagenome with ENA study accession number: PRJEB37062 and ENA sample accession number: ERS12561750 for biotransformation under anaerobic condition. The drug concentrations were measured over 9 timepoints collected between 0 and 24 hours of incubation by liquid-chromatography-coupled mass spectrometry (LC–MS). Conditions: 2 µM.

Series [12] in a line: The drug is tested on Z-025 corresponding to rabbit gut metagenome with ENA study accession number: PRJEB37062 and ENA sample accession number: ERS12561824 for biotransformation under anaerobic condition. The drug concentrations were measured over 9 timepoints collected between 0 and 24 hours of incubation by liquid-chromatography-coupled mass spectrometry (LC–MS). The conditions noted are these: 2 µM.

Series [13] can be described thus: The drug is tested on Z-022 corresponding to mouse gut metagenome with ENA study accession number: PRJEB37062 and ENA sample accession number: ERS12561821 for biotransformation under anaerobic condition. The drug concentrations were measured over 9 timepoints collected between 0 and 24 hours of incubation by liquid-chromatography-coupled mass spectrometry (LC–MS). Conditions: 2 µM.

Series [14] in a line: The drug is tested on Z-011 corresponding to mouse gut metagenome with ENA study accession number: PRJEB37062 and ENA sample accession number: ERS12561811 for biotransformation under anaerobic condition. The drug concentrations were measured over 9 timepoints collected between 0 and 24 hours of incubation by liquid-chromatography-coupled mass spectrometry (LC–MS). The conditions noted are these: 2 µM.

For series [15] the following is noted: human gut metagenome, 24 h, 2 µM. This is another data set of the same source.
The conditions of series [16]: human gut metagenome, 24 h, 2 µM. The source holds these as a separate data set.
Series [17] can be described thus: The drug is tested on WLS-310 corresponding to human gut metagenome with ENA study accession number: PRJEB37062 and ENA sample accession number: ERS12561785 for biotransformation under anaerobic condition. The drug concentrations were measured over 9 timepoints collected between 0 and 24 hours of incubation by liquid-chromatography-coupled mass spectrometry (LC–MS). Conditions: 2 µM.

The conditions of series [18]: human gut metagenome, 24 h, 2 µM. This is another data set of the same source.
A short description of series [19]: The drug is tested on Z-029 corresponding to rat gut metagenome with ENA study accession number: PRJEB37062 and ENA sample accession number: ERS12561828 for biotransformation under anaerobic condition. The drug concentrations were measured over 9 timepoints collected between 0 and 24 hours of incubation by liquid-chromatography-coupled mass spectrometry (LC–MS). Conditions: 2 µM.

For series [20] the following is noted: human gut metagenome, 24 h, 2 µM. The source holds these as a separate data set.
Note: call rule not given here.

As to `CCCN1C[C@H](CSC)C[C@@H]2c3cccc4[nH]cc(c34)C[C@H]21.CS(=O)(=O)O` [PERGOLIDE MESYLATE], the “Bacterial Biotransformation” value in series [1], in series [2], in series [3], in [4], in series [5] and in series [6] was “Compound NOT metabolized” each time. The “Bacterial Biotransformation” value in series [7] was “Compound NOT metabolized”; in [8], “Compound NOT metabolized”; in series [9] it was “Compound NOT metabolized”; in series [10], “Compound NOT metabolized”; in [11], “Compound NOT metabolized”; in series [12], “Compound metabolized”. The “Bacterial Biotransformation” value in [13], in [14], in series [15], in series [16], in series [17] and in series [18] was “Compound NOT metabolized” each time. For the same compound, the “Bacterial Biotransformation” value in [19] and in series [20] was “Compound NOT metabolized” in each case.

Turning to `CCCC(C)(COC(N)=O)COC(=O)NC(C)C` (stereo not given) [CARISOPRODOL], the “Bacterial Biotransformation” value is “Compound NOT metabolized” in [1]; “Compound NOT metabolized” in [2]; “Compound metabolized” in series [3]; “Compound metabolized” in series [4]; “Compound metabolized” in [5]; “Compound metabolized” in series [6]. In addition, the “Bacterial Biotransformation” value in series [7] is given as “Compound metabolized”; in series [8], “Compound NOT metabolized”; in [9], “Compound metabolized”; in series [10], “Compound metabolized”; in series [11], “Compound metabolized”; in series [12] it was “Compound metabolized”. The “Bacterial Biotransformation” value was “Compound metabolized” in series [13]; “Compound metabolized” in [14]; “Compound metabolized” in series [15]; “Compound NOT metabolized” in [16]; “Compound NOT metabolized” in [17]; “Compound metabolized” in series [18]. Moreover, the “Bacterial Biotransformation” value in [19] and in series [20] was “Compound NOT metabolized” in each case.

In the case of `CN(C)C(=O)Oc1cc(OC(=O)N(C)C)cc(C(O)CNC(C)(C)C)c1` (stereo not given) [BAMBUTEROL], the “Bacterial Biotransformation” value in series [1] is “Compound NOT metabolized”; in [2], “Compound metabolized”; in [3], “Compound NOT metabolized”; in series [4], “Compound metabolized”; in series [5], “Compound NOT metabolized”; in [6] it was “Compound NOT metabolized”. For the same compound, the “Bacterial Biotransformation” value in [7] is on record as “Compound metabolized”; in series [8], “Compound NOT metabolized”; in [9], “Compound NOT metabolized”; in series [10], “Compound NOT metabolized”; in series [11], “Compound NOT metabolized”; in [12], “Compound metabolized”. Besides, the “Bacterial Biotransformation” value is “Compound metabolized” in series [13]; “Compound NOT metabolized” in series [14]; “Compound metabolized” in series [15]; “Compound metabolized” in series [16]; “Compound metabolized” in series [17]; “Compound NOT metabolized” in series [18]. The “Bacterial Biotransformation” value in [19] and in series [20] was “Compound NOT metabolized” in each case.

Regarding `CCCN(CCC)CCc1cccc2c1CC(=O)N2` [ROPINIROLE], the “Bacterial Biotransformation” value in series [1] is “Compound NOT metabolized”; in [2] it was “Compound NOT metabolized”; in series [3], “Compound NOT metabolized”; in [4] it was “Compound NOT metabolized”; in series [5], “Compound metabolized”; in [6] it was “Compound metabolized”. Moreover, the “Bacterial Biotransformation” value in series [7], in series [8], in series [9], in series [10], in series [11] and in series [12] was “Compound NOT metabolized” each time. Also, the “Bacterial Biotransformation” value in series [13] is “Compound NOT metabolized”; in series [14] it was “Compound NOT metabolized”; in series [15], “Compound NOT metabolized”; in series [16], “Compound metabolized”; in series [17], “Compound NOT metabolized”; in series [18], “Compound NOT metabolized”. Further, the “Bacterial Biotransformation” value in series [19] and in series [20] was “Compound NOT metabolized” throughout.

Take `O=C1CC2(CCCC2)CC(=O)N1CCCCN1CCN(c2ncccn2)CC1` [BUSPIRONE]: the “Bacterial Biotransformation” value in series [1] was “Compound NOT metabolized”; in [2], “Compound NOT metabolized”; in series [3], “Compound metabolized”; in [4] it was “Compound metabolized”; in series [5], “Compound NOT metabolized”; in series [6], “Compound NOT metabolized”. For the same compound, the “Bacterial Biotransformation” value in series [7], in [8], in [9], in series [10], in series [11] and in series [12] was “Compound NOT metabolized” in each case. Further, the “Bacterial Biotransformation” value in series [13] is given as “Compound NOT metabolized”; in series [14], “Compound NOT metabolized”; in series [15] it was “Compound NOT metabolized”; in series [16], “Compound metabolized”; in series [17] it was “Compound metabolized”; in [18], “Compound NOT metabolized”. Also, the “Bacterial Biotransformation” value in [19] and in series [20] was “Compound NOT metabolized” in each case.

On to `CCN(CC)CCNC(=O)c1cc(S(C)(=O)=O)ccc1OC` [TIAPRIDE], for which the “Bacterial Biotransformation” value in series [1], in series [2], in series [3], in [4], in [5] and in series [6] was “Compound NOT metabolized” each time. Also, the “Bacterial Biotransformation” value in [7] was “Compound metabolized”; in series [8], “Compound NOT metabolized”; in series [9] it was “Compound NOT metabolized”; in series [10] it was “Compound NOT metabolized”; in [11] it was “Compound NOT metabolized”; in series [12], “Compound NOT metabolized”. The “Bacterial Biotransformation” value in series [13] is “Compound NOT metabolized”; in series [14], “Compound metabolized”; in series [15] it was “Compound NOT metabolized”; in series [16], “Compound metabolized”; in [17] it was “Compound metabolized”; in series [18] it was “Compound NOT metabolized”. Further, the “Bacterial Biotransformation” value in [19] and in series [20] was “Compound NOT metabolized” throughout.
